Article PMC11418212, “Characterization of four structurally diverse inhibitors of SUR2-containing KATP channels” (Channels, 2024)
Where “and” joins values, the source holds several entries; their conditions need not be identical. Identical values can stand only once. Entries after “also recorded” stand apart in the source; their conditions may differ. Like-named read-outs stand apart in the source and are kept apart here.

Assays:
Kir6.1/SUR2B [1] = target: T1, Kir6.1/SUR2B (Homo sapiens, UniProt O60706); test: Quantitative thallium flux assay, inhibition, stably transfected T-REx-HEK293 cells; assay type: cell-based
T1 construct: expressed in transfected cells; Kir6.1 tetracycline-inducible, SUR2B constitutive

Kir6.1/SUR2B [2] = target: T1, Kir6.1/SUR2B; test: Thallium flux activation dose-response without channel pre-activation; assay type: cell-based; conditions: no channel pre-activation; doses up to 30 µM
Procedure: (§1) Thallium flux assays were conducted using the established methods. Stably transfected T-REx-HEK-293 cells expressing Kir6.2/SUR1 or Kir6.1/SUR2B were cultured overnight in polyamine-coated plates (black-walled, clear-bottomed; BD, Bedford, MA) at a density of 20,000 cells in 20 µl per well of cell culture media. The expression of Kir6.2/SUR1 or Kir6.1/SUR2B channels was induced by treating cells with 1 µg/ml tetracycline overnight. The following day, cells were rinsed with an assay buffer (Hanks’ Balanced Salt Solution supplied with 20 mM HEPES), loaded with the thallium-sensor dye Brilliant Thallos-AM AM (Ion Bioscience, San Marcos, TX) for 1 h, and then washed again with assay buffer to remove unincorporated dye. The cell plate was subsequently placed in a Panoptic Kinetic Imaging Plate Reader (Wavefront Bioscience, Franklin, TN) and imaged at a frequency of 1 Hz using 482/35 nm (excitation) and 536/40 nm (emission) filter sets. Kir6.1/SUR2B channels were activated with 10 µM pinacidil, whereas Kir6.1/SUR1 was activated with 30 µM VU0071063 [34]. To activate KATP channels independent of activators with ATP-depletion method, cells were treated with a cocktail of metabolic inhibitors (2.5 mM sodium cyanide and 20 mM 2-deoxy glucose) for 25 min before imagine. Control and test compounds diluted freshly from DMSO stocks into assay buffer were added to wells for four minutes before adding 0.5 mM chloride-free thallium stimulus buffer (Ion Bioscience) to initiate thallium flux through the expressed KATP channels. Thallium flux was recorded from all 384-wells for 2 min before terminating the experiment. […] Selectivity assays against other Kir channels were performed as described previously.
(§2) We therefore systematically explored this possibility in dose–response experiments against Kir6.2/SUR1 in the absence of channel pre-activation. Kir6.1/SUR2B was also evaluated for comparison.
(§3) Figure 6. Paradoxical activation of Kir6.2/SUR1. […] Fluorescence intensity at each dose was normalized to that in the absence of drug. […] (b) Activities of indicated compounds at 30 μM toward Kir6.1/SUR2B normalized to that of 30 μM pinacidil. […] (d) Activities of indicated compounds at 30 μM toward Kir6.2/SUR1 normalized to that of 30 μM VU0071063.

Kir3.1/3.4 = target: T2, Kir3.1/3.4 (Homo sapiens, UniProt P48544+P48549); set-up: method as in PMID 29895592; conditions: cited from earlier work
T2 construct: expressed in transfected cells
T2 sequence (P48549 1-501): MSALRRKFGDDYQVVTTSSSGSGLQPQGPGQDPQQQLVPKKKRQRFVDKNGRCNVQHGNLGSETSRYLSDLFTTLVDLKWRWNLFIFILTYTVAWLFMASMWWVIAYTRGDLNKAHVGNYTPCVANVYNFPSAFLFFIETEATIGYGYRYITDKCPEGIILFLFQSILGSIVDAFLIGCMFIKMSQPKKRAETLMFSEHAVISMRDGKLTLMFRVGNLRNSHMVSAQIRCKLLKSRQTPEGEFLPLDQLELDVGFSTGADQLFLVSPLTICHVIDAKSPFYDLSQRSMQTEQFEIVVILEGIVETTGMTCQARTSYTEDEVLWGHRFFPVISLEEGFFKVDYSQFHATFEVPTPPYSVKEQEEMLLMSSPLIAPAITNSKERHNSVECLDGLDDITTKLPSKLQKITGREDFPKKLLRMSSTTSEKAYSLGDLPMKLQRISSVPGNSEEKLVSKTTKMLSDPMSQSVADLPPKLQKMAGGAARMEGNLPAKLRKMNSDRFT
T2 sequence (P48544 1-419): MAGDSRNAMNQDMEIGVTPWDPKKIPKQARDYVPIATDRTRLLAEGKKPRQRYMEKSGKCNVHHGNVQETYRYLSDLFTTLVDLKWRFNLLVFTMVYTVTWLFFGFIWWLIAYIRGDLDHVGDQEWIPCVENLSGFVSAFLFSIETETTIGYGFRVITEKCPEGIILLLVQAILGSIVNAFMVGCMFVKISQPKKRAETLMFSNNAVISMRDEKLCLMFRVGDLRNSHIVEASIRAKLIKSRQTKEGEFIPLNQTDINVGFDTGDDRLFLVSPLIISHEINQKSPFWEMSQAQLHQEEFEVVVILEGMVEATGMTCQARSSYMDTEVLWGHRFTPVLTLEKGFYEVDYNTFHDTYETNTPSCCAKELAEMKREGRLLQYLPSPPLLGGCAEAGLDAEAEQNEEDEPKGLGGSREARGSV

Kir3.1/3.2 = target: T3, Kir3.1/3.2 (Homo sapiens, UniProt P48051+P48549); set-up: method as in PMID 29895592; conditions: cited from earlier work
T3 construct: expressed in transfected cells
T3 sequence (P48549 1-501): T2 sequence (P48549 1-501)
T3 sequence (P48051 1-423): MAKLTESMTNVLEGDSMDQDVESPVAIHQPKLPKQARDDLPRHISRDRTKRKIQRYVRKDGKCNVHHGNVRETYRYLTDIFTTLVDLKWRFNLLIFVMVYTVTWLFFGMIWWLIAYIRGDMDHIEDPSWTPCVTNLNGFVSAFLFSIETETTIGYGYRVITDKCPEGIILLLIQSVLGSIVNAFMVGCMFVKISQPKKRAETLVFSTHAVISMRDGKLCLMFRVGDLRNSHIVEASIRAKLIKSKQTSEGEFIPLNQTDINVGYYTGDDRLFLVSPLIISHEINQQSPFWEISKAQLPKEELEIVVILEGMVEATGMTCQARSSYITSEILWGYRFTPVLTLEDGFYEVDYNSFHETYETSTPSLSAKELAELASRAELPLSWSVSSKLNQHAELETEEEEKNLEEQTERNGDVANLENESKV

Kir4.2 = target: T4, Kir4.2 (Homo sapiens, UniProt Q99712); set-up: method as in PMID 29895592; conditions: cited from earlier work
T4 construct: expressed in transfected cells
T4 sequence (Q99712 1-375): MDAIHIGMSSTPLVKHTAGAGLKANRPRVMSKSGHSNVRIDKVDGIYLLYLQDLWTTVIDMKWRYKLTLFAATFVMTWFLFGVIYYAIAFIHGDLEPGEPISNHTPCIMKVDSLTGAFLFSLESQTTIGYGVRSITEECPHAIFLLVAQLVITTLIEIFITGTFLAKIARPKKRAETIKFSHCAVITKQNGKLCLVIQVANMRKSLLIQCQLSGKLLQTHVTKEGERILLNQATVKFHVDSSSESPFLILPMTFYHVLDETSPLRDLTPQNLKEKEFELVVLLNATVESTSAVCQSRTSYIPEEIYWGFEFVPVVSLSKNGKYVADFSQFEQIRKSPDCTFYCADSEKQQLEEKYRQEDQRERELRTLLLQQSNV

Kir4.1 = target: T5, Kir4.1 (Homo sapiens, UniProt P78508); set-up: method as in PMID 29895592; conditions: cited from earlier work
T5 construct: expressed in transfected cells
T5 sequence (P78508 1-379): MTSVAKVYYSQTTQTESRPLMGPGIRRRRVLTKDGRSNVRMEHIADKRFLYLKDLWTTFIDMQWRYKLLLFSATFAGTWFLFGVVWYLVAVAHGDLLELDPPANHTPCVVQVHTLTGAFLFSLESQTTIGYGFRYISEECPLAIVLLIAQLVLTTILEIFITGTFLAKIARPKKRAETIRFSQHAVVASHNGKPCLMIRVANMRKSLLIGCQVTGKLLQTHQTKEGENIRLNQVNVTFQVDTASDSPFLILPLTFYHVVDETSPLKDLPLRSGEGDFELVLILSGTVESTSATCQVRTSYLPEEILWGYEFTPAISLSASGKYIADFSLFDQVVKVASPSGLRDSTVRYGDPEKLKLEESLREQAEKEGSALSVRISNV

Kir6.1/SUR2B [3] = target: T1, Kir6.1/SUR2B; set-up: method as in PMID 38302135; conditions: previously reported; cited from earlier work
Kir6.2/SUR1 [4] = target: T6, Kir6.2/SUR1 (Homo sapiens, UniProt Q09428); test: Thallium flux activation dose-response without channel pre-activation; assay type: cell-based; conditions: no channel pre-activation; doses up to 30 µM
Procedure: as §1, §2, §3

Kir6.2/SUR1 [5] = target: T6, Kir6.2/SUR1; test: Quantitative thallium flux assay, inhibition, stably transfected T-REx-HEK293 cells; assay type: cell-based
Procedure: Briefly, T-Rex-HEK293 cells underwent co-transfection with pcDNA5/TO-Kir6.1 or pcDNA5/TO-Kir6.2 (inducible expression) and pcDNA3.1-SUR2B or pcDNA3.1-SUR1 (constitutive expression) using Lipofectamine LTX following the manufacturer’s instructions and were then subjected to selection with antibiotics. Monoclonal cell lines were established through limiting dilution and characterization in thallium flux assays described below. […] KATP channel selectivity assays were performed in HEK293 cells transiently transfected with the indicated subunit using Lipofectamine LTX. The cells were incubated for 48 h after transfection before performing thallium flux assays.
as §1, with “The cell plate was subsequently placed in a Panoptic Kinetic Imaging Plate Reader (Wavefront Bioscience, Franklin, TN) and imaged at a frequency of 1 Hz using 482/35 nm (excitation) and 536/40 nm (emission) filter sets. Kir6.1/SUR2B channels were activated with 10 µM pinacidil, whereas Kir6.1/SUR1 was activated with 30 µM VU0071063 [34].” left out
The kinetic fluorescence measurements (F) from each well were normalized to the initial reading (F0), producing static ratios (F/F0) that adjust for variations in cell count and dye uptake. […] The response (maxmin2) was determined by subtracting the min value from the max value. Percent inhibition was calculated by normalizing each well’s response to the positive and negative controls. Concentration–response curves were fitted using a single-site, four-parameter logistic function in Prism version 4.0 (GraphPad Software Inc., San Diego, CA) to calculate the half-maximal inhibitory concentration (IC50). Statistical comparisons of IC50 values were performed using an extra sum-of-squares F test and the Mann–Whitney test. A p-value of less than 0.05 was considered statistically significant.

Kir6.2/SUR1 [6] = target: T6, Kir6.2/SUR1; set-up: method as in PMID 38302135; conditions: previously reported; cited from earlier work
[7] = tested on: isolated mouse ductus arteriosus vessels; set-up: method as in PMID 38302135; conditions: compared with glibenclamide; cited from earlier work
[8] = ATP depletion with sodium cyanide and 2-deoxy-glucose, read-out: IC50 Kir6.1/SUR2B, ATP depletion
[9] = channels activated with 10 µM pinacidil, read-out: IC50 Kir6.1/SUR2B, pinacidil activation
[10] = thallium flux, ATP depletion with sodium cyanide and 2-deoxy-glucose

T1 sequence (O60706 1-1549 isoform O60706-2, species assumed): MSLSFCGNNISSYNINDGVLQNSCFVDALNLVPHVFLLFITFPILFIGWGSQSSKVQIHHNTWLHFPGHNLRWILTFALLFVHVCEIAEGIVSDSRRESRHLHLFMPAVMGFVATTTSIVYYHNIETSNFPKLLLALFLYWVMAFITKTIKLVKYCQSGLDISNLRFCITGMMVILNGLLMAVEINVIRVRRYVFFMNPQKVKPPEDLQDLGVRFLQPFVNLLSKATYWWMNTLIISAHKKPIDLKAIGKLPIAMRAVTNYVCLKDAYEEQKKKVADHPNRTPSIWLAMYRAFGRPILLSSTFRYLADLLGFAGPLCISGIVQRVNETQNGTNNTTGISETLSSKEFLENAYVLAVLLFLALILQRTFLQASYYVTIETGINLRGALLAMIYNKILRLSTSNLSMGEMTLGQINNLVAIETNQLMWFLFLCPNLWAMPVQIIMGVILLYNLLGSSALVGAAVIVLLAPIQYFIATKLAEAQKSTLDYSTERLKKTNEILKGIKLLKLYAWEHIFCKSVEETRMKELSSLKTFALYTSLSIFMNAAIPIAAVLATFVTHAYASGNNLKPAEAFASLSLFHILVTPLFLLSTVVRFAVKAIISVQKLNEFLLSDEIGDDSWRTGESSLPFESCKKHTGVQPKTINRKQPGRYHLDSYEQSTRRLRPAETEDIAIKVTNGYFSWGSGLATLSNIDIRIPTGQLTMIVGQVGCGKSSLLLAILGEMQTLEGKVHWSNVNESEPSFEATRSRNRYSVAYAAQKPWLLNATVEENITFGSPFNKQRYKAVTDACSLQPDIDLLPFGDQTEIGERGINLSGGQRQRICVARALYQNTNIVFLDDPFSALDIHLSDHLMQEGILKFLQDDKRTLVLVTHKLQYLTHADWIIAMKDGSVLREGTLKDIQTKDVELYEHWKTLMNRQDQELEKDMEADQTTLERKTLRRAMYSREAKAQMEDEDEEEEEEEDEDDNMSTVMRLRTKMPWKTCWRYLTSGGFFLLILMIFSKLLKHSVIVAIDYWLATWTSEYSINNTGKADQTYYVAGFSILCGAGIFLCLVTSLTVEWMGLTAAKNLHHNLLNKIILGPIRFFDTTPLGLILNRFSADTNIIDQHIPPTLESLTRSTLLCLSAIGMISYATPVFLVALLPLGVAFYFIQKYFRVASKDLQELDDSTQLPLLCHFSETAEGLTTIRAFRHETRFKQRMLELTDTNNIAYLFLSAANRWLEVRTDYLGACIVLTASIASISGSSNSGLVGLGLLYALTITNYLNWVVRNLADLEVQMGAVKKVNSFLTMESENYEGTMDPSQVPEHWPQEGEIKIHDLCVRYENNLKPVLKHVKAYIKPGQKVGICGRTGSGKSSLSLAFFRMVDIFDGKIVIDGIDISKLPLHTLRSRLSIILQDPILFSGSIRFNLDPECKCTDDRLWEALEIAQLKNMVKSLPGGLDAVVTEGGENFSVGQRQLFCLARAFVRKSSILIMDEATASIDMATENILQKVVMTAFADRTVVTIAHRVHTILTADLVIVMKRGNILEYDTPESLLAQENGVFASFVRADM
T1 sequence (Q15842 whole entry partner, species assumed): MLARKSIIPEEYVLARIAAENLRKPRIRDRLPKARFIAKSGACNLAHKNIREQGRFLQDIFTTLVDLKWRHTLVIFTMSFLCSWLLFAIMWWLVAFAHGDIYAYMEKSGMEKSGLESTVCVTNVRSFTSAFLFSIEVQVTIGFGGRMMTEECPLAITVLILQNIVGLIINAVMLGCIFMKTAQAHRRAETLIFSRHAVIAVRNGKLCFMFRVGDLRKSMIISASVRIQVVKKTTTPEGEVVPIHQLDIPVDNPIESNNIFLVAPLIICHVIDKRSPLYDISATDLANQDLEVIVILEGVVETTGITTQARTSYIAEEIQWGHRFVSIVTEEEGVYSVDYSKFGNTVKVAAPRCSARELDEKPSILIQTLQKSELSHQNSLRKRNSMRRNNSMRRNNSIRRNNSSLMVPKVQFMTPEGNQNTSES
T6 sequence (Q09428 whole entry, species assumed): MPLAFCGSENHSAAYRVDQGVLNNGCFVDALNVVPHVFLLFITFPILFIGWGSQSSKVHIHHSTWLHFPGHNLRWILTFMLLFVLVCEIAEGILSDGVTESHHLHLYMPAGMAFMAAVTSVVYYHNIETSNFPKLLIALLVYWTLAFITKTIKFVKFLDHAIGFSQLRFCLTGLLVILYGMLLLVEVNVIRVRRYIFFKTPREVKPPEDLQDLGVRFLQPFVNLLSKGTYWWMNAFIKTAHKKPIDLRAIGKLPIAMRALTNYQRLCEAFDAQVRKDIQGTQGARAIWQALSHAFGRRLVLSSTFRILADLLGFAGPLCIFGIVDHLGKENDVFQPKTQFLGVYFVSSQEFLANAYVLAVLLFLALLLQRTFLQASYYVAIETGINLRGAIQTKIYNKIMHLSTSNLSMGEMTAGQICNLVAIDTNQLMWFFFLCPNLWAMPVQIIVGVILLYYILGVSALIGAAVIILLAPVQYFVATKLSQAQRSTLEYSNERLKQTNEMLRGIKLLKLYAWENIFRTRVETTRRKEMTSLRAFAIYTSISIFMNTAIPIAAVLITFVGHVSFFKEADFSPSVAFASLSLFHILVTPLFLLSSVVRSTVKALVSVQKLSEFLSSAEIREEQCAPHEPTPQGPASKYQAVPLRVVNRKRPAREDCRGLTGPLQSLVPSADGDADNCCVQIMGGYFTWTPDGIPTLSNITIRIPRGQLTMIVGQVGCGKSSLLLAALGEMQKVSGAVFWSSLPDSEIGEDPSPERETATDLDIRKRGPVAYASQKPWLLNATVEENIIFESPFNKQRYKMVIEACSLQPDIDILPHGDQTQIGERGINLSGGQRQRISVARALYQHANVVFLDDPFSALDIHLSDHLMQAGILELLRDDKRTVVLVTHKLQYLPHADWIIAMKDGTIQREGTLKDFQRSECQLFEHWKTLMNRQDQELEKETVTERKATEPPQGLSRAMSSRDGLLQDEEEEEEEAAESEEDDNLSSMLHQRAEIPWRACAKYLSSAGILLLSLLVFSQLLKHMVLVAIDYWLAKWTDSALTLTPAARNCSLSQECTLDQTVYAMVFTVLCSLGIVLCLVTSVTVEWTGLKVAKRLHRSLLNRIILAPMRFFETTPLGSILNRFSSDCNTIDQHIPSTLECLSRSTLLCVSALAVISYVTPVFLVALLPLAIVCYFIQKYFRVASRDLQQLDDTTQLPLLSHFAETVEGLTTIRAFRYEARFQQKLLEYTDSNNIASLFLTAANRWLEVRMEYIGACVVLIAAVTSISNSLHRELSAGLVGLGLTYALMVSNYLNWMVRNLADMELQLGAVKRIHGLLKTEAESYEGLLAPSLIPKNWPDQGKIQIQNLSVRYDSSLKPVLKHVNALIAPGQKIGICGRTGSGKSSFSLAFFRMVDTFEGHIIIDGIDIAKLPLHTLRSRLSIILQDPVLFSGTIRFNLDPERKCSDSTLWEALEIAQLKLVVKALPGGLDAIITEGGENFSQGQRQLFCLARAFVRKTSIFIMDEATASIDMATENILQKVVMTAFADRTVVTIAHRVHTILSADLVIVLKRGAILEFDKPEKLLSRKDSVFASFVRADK
T6 sequence (Q14654 whole entry partner, species assumed): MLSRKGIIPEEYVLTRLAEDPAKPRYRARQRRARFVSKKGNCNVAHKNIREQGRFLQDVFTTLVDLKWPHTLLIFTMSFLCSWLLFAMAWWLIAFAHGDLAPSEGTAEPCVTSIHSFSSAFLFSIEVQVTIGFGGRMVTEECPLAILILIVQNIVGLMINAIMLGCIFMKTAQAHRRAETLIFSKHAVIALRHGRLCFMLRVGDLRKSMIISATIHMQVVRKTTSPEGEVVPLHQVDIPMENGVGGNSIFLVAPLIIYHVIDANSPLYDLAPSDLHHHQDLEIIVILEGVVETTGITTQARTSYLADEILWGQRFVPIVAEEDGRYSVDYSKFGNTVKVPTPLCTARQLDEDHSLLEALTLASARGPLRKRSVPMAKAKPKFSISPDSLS

| SMILES | IC50 (Kir6.1/SUR2B [1]; [8]) | IC50 (Kir6.1/SUR2B [1]; [9]) | Activation of Kir6.1/SUR2B (Kir6.1/SUR2B [2]) | Efficacy of inhibition of Kir3.1/3.4 (Kir3.1/3.4; at 30 µM) | IC50 (Kir3.1/3.4) | Efficacy of inhibition of Kir3.1/3.2 (Kir3.1/3.2; at 30 µM) | IC50 (Kir3.1/3.2) | IC50 (Kir4.2) | Efficacy of inhibition of Kir4.1 (Kir4.1; at 30 µM) | IC50 (Kir4.1) | IC50 (Kir6.1/SUR2B [3]) | Activation of Kir6.2/SUR1 (Kir6.2/SUR1 [4]) | Effect on Kir6.2/SUR1 channel activity (Kir6.2/SUR1 [5]; VU0071063 activation or ATP depletion, full range of doses tested (up to 30 µM)) | IC50 (Kir6.2/SUR1 [5]; [10]) | IC50 Kir6.2/SUR1, ATP depletion (Kir6.2/SUR1 [5]; [10]) | IC50 Kir6.2/SUR1, VU0071063 activation (Kir6.2/SUR1 [5]; thallium flux, in the presence of 10 uM VU0071063) | Activity toward Kir6.2/SUR1 (Kir6.2/SUR1 [6]) | Potency for contraction of ductus arteriosus vessels [7] |
| --- | --- | --- | --- | --- | --- | --- | --- | --- | --- | --- | --- | --- | --- | --- | --- | --- | --- | --- |
| COc1ccc(Cl)cc1C(=O)NCCc1ccc(S(=O)(=O)NC(=O)NC2CCCCC2)cc1 [Glibenclamide, glibenclamide, reference compound] | 51 nM and 50 nM | 33 nM and 30 nM | failed to activate |  |  |  |  |  |  |  |  |  |  |  |  |  |  |  |
| CC(C)c1ccc(OCC(=O)NC2CC(C)(C)NC(C)(C)C2)c(Br)c1 [VU0134992] |  |  |  | greater than 90% | 3100 nM | greater than 90% | 2500 nM | 8200 nM | greater than 90% | 5200 nM |  |  |  |  |  |  |  |  |
| Cc1nc(-c2cccs2)sc1CNC(=O)Nc1cccs1 [VU0542270, reference compound] | 31 nM and 30 nM | 100 nM | failed to activate |  |  |  |  |  |  |  | ~100 nM | failed to activate; also recorded: did not | no effect | > 30000 nM | no fit | no fit | no apparent activity | same potency as glibenclamide |
